Measurements reported in ChEMBL document CHEMBL1201862, “PubChem BioAssay data set” (2004).
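Cultured in 96-well plates, cells were exposed to test compound for 48 hours across five concentrations. GI50 is the concentration that inhibits growth by half.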 Active and inactive are the calls of the source. Rule as the data show it: active = GI50 up to about 1.1 µM and inactive = higher.

Experiments:
Assay in all cases: NCI anticancer screen, dose series, 48 h
HOP-18 = system: HOP-18
SNB-78 = system: SNB-78
DU-145 = system: DU-145
MDA-N = system: MDA-N
PC-3 = system: PC-3
LXFL 529 = system: LXFL 529
XF498 = system: XF498
786-0 = system: 786-0
RXF 631 = system: RXF 631

**Q.** How did the GI50 (HOP-18) turn out when `Nc1nc(=O)c2c([nH]1)NCC(CNc1ccc(C(=O)N[C@@H](CCC(=O)O)C(=O)O)cc1)N2C=O` (some centres undefined) [LEUCOVORIN CALCIUM] was run?
**A.** The GI50 was > 125 µM (inactive).

**Q.** What about the GI50 (SNB-78) of the same molecule?
**A.** The GI50 was > 125 µM (inactive).

**Q.** With `N#Cc1c(N)nc(Nc2cccc3ccccc23)c(C#N)c1C#N` as the molecule, how does the GI50 (DU-145) read?
**A.** Its GI50 is > 10 µM (inactive).

**Q.** What about the GI50 (MDA-N) of the same molecule?
**A.** Its GI50 is 1.84 µM (inactive).

**Q.** What about the GI50 (PC-3) of the same molecule?
**A.** The GI50 was 4.27 µM (inactive).

**Q.** `CC(C)OP(=O)(OC(C)C)/C(=N/Nc1ccc([N+](=O)[O-])cc1)Nc1ccc(N/C(=N\Nc2ccc([N+](=O)[O-])cc2)P(=O)(OC(C)C)OC(C)C)cc1` was tested. Which GI50 (LXFL 529) did it give?
**A.** Its GI50 is 19.6 µM (inactive).

**Q.** And the GI50 (XF498)?
**A.** Its GI50 is > 100 µM (inactive).

**Q.** With `NC(=O)SCC(=O)Nc1ccc2ncccc2c1` as the molecule, how does the GI50 (786-0) read?
**A.** The GI50 was 26.8 µM (inactive).

**Q.** What about the GI50 (MDA-N) of the same molecule?
**A.** Its GI50 is 61.5 µM (inactive).

**Q.** What about the GI50 (PC-3) of the same molecule?
**A.** The GI50 was 64.9 µM (inactive).

**Q.** Which GI50 (786-0) does the source give for `O=S(=O)(N=S(c1ccccc1)c1ccccc1)c1ccccc1` here?
**A.** The GI50 was > 100 µM (inactive).

**Q.** What about the GI50 (DU-145) of the same molecule?
**A.** Its GI50 is > 100 µM (inactive).

**Q.** And the GI50 (PC-3)?
**A.** The GI50 was > 100 µM (inactive).

**Q.** With `CC(=O)C1=C(C)NC(=C(C#N)C#N)C(C#N)=C1` as the molecule, how does the GI50 (786-0) read?
**A.** Its GI50 is > 100 µM (inactive).

**Q.** And the GI50 (DU-145)?
**A.** The GI50 was > 100 µM (inactive).

**Q.** And the GI50 (MDA-N)?
**A.** The GI50 was > 100 µM (inactive).

**Q.** And the GI50 (PC-3)?
**A.** The GI50 was > 100 µM (inactive).

**Q.** With `Nc1ncnc2c1cnn2Cc1ccc(Cl)cc1` as the molecule, how does the GI50 (DU-145) read?
**A.** Its GI50 is > 100 µM (inactive).

**Q.** And the GI50 (MDA-N)?
**A.** The GI50 was > 100 µM (inactive).

**Q.** What about the GI50 (PC-3) of the same molecule?
**A.** Its GI50 is > 100 µM (inactive).

**Q.** Which GI50 (DU-145) does the source give for `NC(CCCCO)C(=O)O` (centres undefined) here?
**A.** The GI50 was > 100 µM (inactive).

**Q.** What about the GI50 (PC-3) of the same molecule?
**A.** The GI50 was > 100 µM (inactive).

**Q.** With `CCCCCCCCCCCCCCCCCCOP(=O)([O-])OCC[N+](C)(C)C` [OCTADECYLPHOSPHONOCHOLINE] as the molecule, how does the GI50 (HOP-18) read?
**A.** Its GI50 is 15.9 µM (inactive).

**Q.** And the GI50 (SNB-78)?
**A.** The GI50 was 10.2 µM (inactive).

**Q.** And the GI50 (XF498)?
**A.** Its GI50 is 12.4 µM (inactive).

**Q.** How did the GI50 (786-0) turn out when `COC(=O)CCC(=O)c1ccc2c(c1)CCC2` was run?
**A.** Its GI50 is > 100 µM (inactive).

**Q.** What about the GI50 (DU-145) of the same molecule?
**A.** The GI50 was > 100 µM (inactive).

**Q.** What about the GI50 (MDA-N) of the same molecule?
**A.** Its GI50 is > 100 µM (inactive).

**Q.** And the GI50 (PC-3)?
**A.** The GI50 was > 100 µM (inactive).

**Q.** How did the GI50 (HOP-18) turn out when `C=C1C(=O)O[C@@H]2[C@H](O)[C@@H](C)[C@@H]3C=CC(=O)[C@@]3(C)[C@H](OC(=O)C=C(C)C)[C@H]12` was run?
**A.** The GI50 was 1.67 µM (inactive).

**Q.** What about the GI50 (XF498) of the same molecule?
**A.** The GI50 was 1.24 µM (inactive).

**Q.** How did the GI50 (786-0) turn out when `O=C(O)c1ccccc1CN1CCCC(C(=O)O)C1` (centres undefined) was run?
**A.** The GI50 was > 100 µM (inactive).

**Q.** And the GI50 (DU-145)?
**A.** Its GI50 is > 100 µM (inactive).

**Q.** And the GI50 (MDA-N)?
**A.** The GI50 was > 100 µM (inactive).

**Q.** What about the GI50 (PC-3) of the same molecule?
**A.** Its GI50 is > 100 µM (inactive).

**Q.** For `COC(=O)C(NC(=O)c1ccccc1)C(c1c(O)cc(O)cc1O)P(=O)(OC)OC` (centres undefined), which GI50 (LXFL 529) is on record?
**A.** Its GI50 is 54 µM (inactive).

**Q.** And the GI50 (RXF 631)?
**A.** The GI50 was > 100 µM (inactive).

**Q.** What about the GI50 (XF498) of the same molecule?
**A.** The GI50 was > 100 µM (inactive).

**Q.** With `O=C1C[C@@H]2[C@@H](C=CC23CCCC3)N1O` as the molecule, how does the GI50 (786-0) read?
**A.** The GI50 was > 100 µM (inactive).

**Q.** What about the GI50 (HOP-18) of the same molecule?
**A.** Its GI50 is > 100 µM (inactive).

**Q.** And the GI50 (LXFL 529)?
**A.** The GI50 was > 100 µM (inactive).

**Q.** What about the GI50 (SNB-78) of the same molecule?
**A.** Its GI50 is > 100 µM (inactive).

**Q.** Which results are given for `Cc1ccc(-c2n[nH]c(=O)n2/N=C\c2ccccc2)cc1`?
**A.** GI50 (786-0): 60.3 µM (inactive); GI50 (DU-145): > 94.2 µM (inactive); GI50 (MDA-N): 51.1 µM (inactive); GI50 (PC-3): > 63.2 µM (inactive)

**Q.** Which GI50 (786-0) does the source give for `Cc1ccn2c(=O)cc(-c3ccccc3)nc2c1` here?
**A.** The GI50 was > 100 µM (inactive).

**Q.** What about the GI50 (DU-145) of the same molecule?
**A.** The GI50 was > 100 µM (inactive).

**Q.** And the GI50 (MDA-N)?
**A.** Its GI50 is > 100 µM (inactive).

**Q.** What about the GI50 (PC-3) of the same molecule?
**A.** The GI50 was > 100 µM (inactive).

**Q.** `CC1=C[C@@H]2[C@@H](CC(CO)=C[C@H]3[C@@H]4C(C)(C)[C@]4(OCC(C)C)[C@H](OCC(C)C)[C@@H](C)[C@]23O)C1=O` was tested. Which GI50 (786-0) did it give?
**A.** Its GI50 is 1.47 µM (inactive).

**Q.** And the GI50 (DU-145)?
**A.** The GI50 was 3.2 µM (inactive).

**Q.** And the GI50 (MDA-N)?
**A.** The GI50 was 0.649 µM (active).

**Q.** And the GI50 (PC-3)?
**A.** The GI50 was 1.49 µM (inactive).
